Values joined by “and” are separate entries in the source; they are usually repeats but may differ in a detail not shown here. Equal values may be shown once.
System: Swiss mice, Sarcoma 180 sc, mean tumor weight T/C
Assay: NCI In Vivo Anticancer Drug Screen. Data for tumor model Sarcoma 180 (subcutaneous) in Swiss mice
Details: endpoint: mean tumor weight, higher = larger tumour
Method in brief: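 Tumor-bearing mice, transplantable tumor; readout survival or tumor size; result = T/C, treated vs vehicle control.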

[1] = dose: 125.0 mg/kg/injection, schedule: Q01DX007 (ip), vehicle: other

Q: `CCCCOP(=S)(N1CC1)N1CC1` was tested. Which T/C (dose: 0.25 mg/kg/injection, schedule: Q01DX007 (ip), vehicle: saline) did it give?
A: 97 % of control

Q: And the T/C (dose: 0.5 mg/kg/injection, schedule: Q01DX007 (ip), vehicle: saline)?
A: 73 % of control

Q: What about the T/C (dose: 0.75 mg/kg/injection, schedule: Q01DX007 (ip), vehicle: other) of the same molecule?
A: 124 % of control

Q: What about the T/C (dose: 0.75 mg/kg/injection, schedule: Q01DX007 (ip), vehicle: saline) of the same molecule?
A: 86 % of control

Q: And the T/C (dose: 1.0 mg/kg/injection, schedule: Q01DX007 (ip), vehicle: saline)?
A: 70 % of control

Q: What about the T/C (dose: 1.5 mg/kg/injection, schedule: Q01DX007 (ip), vehicle: other) of the same molecule?
A: 79 % of control

Q: And the T/C (dose: 1.5 mg/kg/injection, schedule: Q01DX007 (ip), vehicle: saline)?
A: 70 % of control

Q: What about the T/C (dose: 1.8 mg/kg/injection, schedule: Q01DX007 (ip), vehicle: saline) of the same molecule?
A: 33 % of control

Q: What about the T/C (dose: 2.8 mg/kg/injection, schedule: Q01DX007 (ip), vehicle: saline) of the same molecule?
A: 9 % of control

Q: And the T/C (dose: 3.0 mg/kg/injection, schedule: Q01DX007 (ip), vehicle: other)?
A: 87 % of control

Q: What about the T/C (dose: 3.0 mg/kg/injection, schedule: Q01DX007 (ip), vehicle: saline) of the same molecule?
A: 57 % of control

Q: What about the T/C (dose: 4.3 mg/kg/injection, schedule: Q01DX007 (ip), vehicle: saline) of the same molecule?
A: 11 % of control

Q: What about the T/C (dose: 6.0 mg/kg/injection, schedule: Q01DX007 (ip), vehicle: other) of the same molecule?
A: 91 % of control

Q: What about the T/C (dose: 6.0 mg/kg/injection, schedule: Q01DX007 (ip), vehicle: saline) of the same molecule?
A: 31 % of control

Q: What about the T/C (dose: 6.6 mg/kg/injection, schedule: Q01DX007 (ip), vehicle: saline) of the same molecule?
A: 3 % of control

Q: And the T/C (dose: 7.5 mg/kg/injection, schedule: Q#A X014 (ip), vehicle: saline)?
A: 28 % of control

Q: And the T/C (dose: 10.0 mg/kg/injection, schedule: Q01DX007 (ip), vehicle: other)?
A: 103 % of control

Q: And the T/C (dose: 10.0 mg/kg/injection, schedule: Q01DX007 (ip), vehicle: saline)?
A: 17 % of control

Q: And the T/C (dose: 10.0 mg/kg/injection, schedule: Q## X000 (ip), vehicle: saline)?
A: 17 % of control

Q: And the T/C (dose: 15.0 mg/kg/injection, schedule: Q## X000 (ip), vehicle: saline)?
A: 2 % of control

Q: And the T/C (dose: 22.5 mg/kg/injection, schedule: Q## X000 (ip), vehicle: saline)?
A: 3 % of control

Q: Which T/C (dose: 62.5 mg/kg/injection, schedule: Q01DX007 (ip), vehicle: other) does the source give for `NC(=O)CCC(NC(=O)c1ccc([N+](=O)[O-])cc1)C(=O)O` (configuration not stated) here?
A: 69 % of control

Q: And the T/C [1]?
A: 50 % of control

Q: What about the T/C (dose: 250.0 mg/kg/injection, schedule: Q01DX007 (ip), vehicle: other) of the same molecule?
A: 63 % of control

Q: How did the T/C (dose: 3.97 mg/kg/injection, schedule: Q01DX007 (ip), vehicle: carboxymethylcellulose (CMC)) turn out when `CC1(C)N=C(N)N=C(N)N1c1cccc(Cl)c1` was run?
A: 83 % of control

Q: What about the T/C (dose: 6.95 mg/kg/injection, schedule: Q01DX007 (ip), vehicle: carboxymethylcellulose (CMC)) of the same molecule?
A: 85 % of control

Q: And the T/C (dose: 13.9 mg/kg/injection, schedule: Q01DX007 (ip), vehicle: carboxymethylcellulose (CMC))?
A: 68 % of control

Q: What about the T/C (dose: 27.8 mg/kg/injection, schedule: Q01DX007 (ip), vehicle: carboxymethylcellulose (CMC)) of the same molecule?
A: 74 % of control

Q: What does the source list for `CCCS/C(N)=N/N=C/c1ccc([N+](=O)[O-])o1`?
A: T/C (dose: 13.5 mg/kg/injection, schedule: Q#A X014 (ip), vehicle: water): 81 % of control; T/C (dose: 20.0 mg/kg/injection, schedule: Q#A X014 (ip), vehicle: water): 53 % of control; T/C (dose: 27.0 mg/kg/injection, schedule: Q01DX007 (ip), vehicle: other): 67 % of control; T/C (dose: 27.0 mg/kg/injection, schedule: Q01DX007 (ip), vehicle: water): 61 % of control; T/C (dose: 30.0 mg/kg/injection, schedule: Q#A X014 (ip), vehicle: water): 34 % of control; T/C (dose: 40.0 mg/kg/injection, schedule: Q01DX007 (ip), vehicle: water): 45 % of control; T/C (dose: 60.0 mg/kg/injection, schedule: Q01DX007 (ip), vehicle: water): 59 % of control

Q: What does the source list for `CC(C)=C(Br)CC[C@@H](C)[C@H]1CC[C@@]2(C)C3=C(CC[C@]12C)[C@@]1(C)CC[C@H](O)C(C)(C)[C@@H]1CC3`?
A: T/C (dose: 62.0 mg/kg/injection, schedule: Q01DX007 (sc), vehicle: steriod suspending solution): 109 % of control; T/C (dose: 125.0 mg/kg/injection, schedule: Q01DX007 (sc), vehicle: steriod suspending solution): 97 % of control; T/C (dose: 500.0 mg/kg/injection, schedule: Q01DX007 (sc), vehicle: steriod suspending solution): 183 % of control

Q: How did the T/C (dose: 147.0 mg/kg/injection, schedule: Q01DX007 (ip), vehicle: carboxymethylcellulose (CMC)) turn out when `O=C(CCBr)N1CCCN(C(=O)CCBr)CC1` was run?
A: 49 % of control

Q: And the T/C (dose: 223.0 mg/kg/injection, schedule: Q01DX007 (ip), vehicle: carboxymethylcellulose (CMC))?
A: 46 % of control

Q: How did the T/C (dose: 31.3 mg/kg/injection, schedule: Q01DX007 (ip), vehicle: saline) turn out when `CCCCCC[C@@H](O)C/C=C\CCCCCCCC(=O)O` was run?
A: 59 % of control

Q: What about the T/C (dose: 62.5 mg/kg/injection, schedule: Q01DX007 (ip), vehicle: saline) of the same molecule?
A: 95 % of control

Q: And the T/C (dose: 125.0 mg/kg/injection, schedule: Q01DX007 (ip), vehicle: saline)?
A: 87 % of control

Q: With `[N-]=[N+]=C1N=CN=C1c1ncn[nH]1` as the molecule, how does the T/C (dose: 25.0 mg/kg/injection, schedule: Q01DX007 (ip), vehicle: carboxymethylcellulose (CMC)) read?
A: 107 % of control

Q: What about the T/C (dose: 50.0 mg/kg/injection, schedule: Q01DX007 (ip), vehicle: carboxymethylcellulose (CMC)) of the same molecule?
A: 69 % of control

Q: With `COc1cccc2c1-c1ccccc1C2` as the molecule, how does the T/C (dose: 62.5 mg/kg/injection, schedule: Q01DX007 (ip), vehicle: carboxymethylcellulose (CMC)) read?
A: 151 % of control

Q: And the T/C (dose: 250.0 mg/kg/injection, schedule: Q01DX007 (ip), vehicle: carboxymethylcellulose (CMC))?
A: 114 % of control

Q: `c1ccc(CNc2ncnc3[nH]ncc23)cc1` was tested. Which T/C (dose: 8.0 mg/kg/injection, schedule: Q01DX007 (ip), vehicle: carboxymethylcellulose (CMC)) did it give?
A: 87 % of control

Q: What about the T/C (dose: 16.0 mg/kg/injection, schedule: Q01DX007 (ip), vehicle: carboxymethylcellulose (CMC)) of the same molecule?
A: 106 % of control

Q: What about the T/C (dose: 31.0 mg/kg/injection, schedule: Q01DX007 (ip), vehicle: carboxymethylcellulose (CMC)) of the same molecule?
A: 62 % of control

Q: For `Nc1nc(Cl)ncc1F`, which T/C (dose: 25.0 mg/kg/injection, schedule: Q01DX007 (ip), vehicle: saline) is on record?
A: 101 % of control

Q: And the T/C (dose: 50.0 mg/kg/injection, schedule: Q01DX007 (ip), vehicle: saline)?
A: 83 % of control

Q: And the T/C (dose: 100.0 mg/kg/injection, schedule: Q01DX007 (ip), vehicle: saline)?
A: 92 % of control

Q: Which T/C (dose: 0.5 mg/kg/injection, schedule: Q01DX007 (ip), vehicle: carboxymethylcellulose (CMC)) does the source give for `Nc1n[se]nc1C(=O)O` here?
A: 96 % of control

Q: What about the T/C (dose: 1.0 mg/kg/injection, schedule: Q01DX007 (ip), vehicle: carboxymethylcellulose (CMC)) of the same molecule?
A: 117 % of control

Q: And the T/C (dose: 2.0 mg/kg/injection, schedule: Q01DX007 (ip), vehicle: carboxymethylcellulose (CMC))?
A: 77 % of control

Q: For `NNc1nncc2ccccc12`, which T/C (dose: 37.5 mg/kg/injection, schedule: Q01DX007 (ip), vehicle: carboxymethylcellulose (CMC)) is on record?
A: 116 % of control

Q: What about the T/C (dose: 75.0 mg/kg/injection, schedule: Q01DX007 (ip), vehicle: carboxymethylcellulose (CMC)) of the same molecule?
A: 100 % of control

Q: For `CCOC(=O)NP(=O)(N1CC1)N1CC1`, which T/C (dose: 937.0 micrograms/kg/injection, schedule: Q01DX007 (ip), vehicle: carboxymethylcellulose (CMC)) is on record?
A: 113 % of control

Q: What about the T/C (dose: 1875.0 micrograms/kg/injection, schedule: Q01DX007 (ip), vehicle: carboxymethylcellulose (CMC)) of the same molecule?
A: 100 % of control

Q: What about the T/C (dose: 7500.0 micrograms/kg/injection, schedule: Q01DX007 (ip), vehicle: carboxymethylcellulose (CMC)) of the same molecule?
A: 74 % of control

Q: Which results are given for `COc1ccc(C(=O)/C(Br)=C/C(=O)O)cc1`?
A: T/C (dose: 6.25 mg/kg/injection, schedule: Q01DX007 (ip), vehicle: water): 99 % of control; T/C (dose: 12.5 mg/kg/injection, schedule: Q01DX007 (ip), vehicle: water): 82 % of control; T/C (dose: 25.0 mg/kg/injection, schedule: Q01DX007 (ip), vehicle: water): 108 % of control

Q: With `O=C(O)CCCNC(=O)c1ccc([N+](=O)[O-])cc1` as the molecule, how does the T/C (dose: 125.0 mg/kg/injection, schedule: Q01DX007 (ip), vehicle: methylcellulose (MC)) read?
A: 67 % of control

Q: And the T/C (dose: 250.0 mg/kg/injection, schedule: Q01DX007 (ip), vehicle: methylcellulose (MC))?
A: 78 % of control

Q: For `CC(=O)[C@H]1CC[C@H]2[C@@H]3CCC4=CC(=O)[C@H](C)C[C@]4(C)[C@H]3C(=O)C[C@]12C`, which T/C (dose: 50.0 mg/kg/injection, schedule: Q#A X014 (oral), vehicle: steriod suspending solution) is on record?
A: 97 % of control

Q: What about the T/C (dose: 125.0 mg/kg/injection, schedule: Q#A X014 (oral), vehicle: steriod suspending solution) of the same molecule?
A: 68 % of control

Q: What about the T/C (dose: 250.0 mg/kg/injection, schedule: Q#A X014 (oral), vehicle: steriod suspending solution) of the same molecule?
A: 63 % of control

Q: `SCc1ccccn1` was tested. Which T/C (dose: 62.0 mg/kg/injection, schedule: Q01DX007 (ip), vehicle: other) did it give?
A: 117 % of control

Q: What about the T/C [1] of the same molecule?
A: 103 % of control

Q: `Clc1ccc2c(Cl)ncnc2c1` was tested. Which T/C (dose: 22.0 mg/kg/injection, schedule: Q#A X014 (ip), vehicle: methylcellulose (MC)) did it give?
A: 58 % of control and 64 % of control

Q: What about the T/C (dose: 22.5 mg/kg/injection, schedule: Q#A X014 (ip), vehicle: methylcellulose (MC)) of the same molecule?
A: 80 % of control

Q: And the T/C (dose: 33.0 mg/kg/injection, schedule: Q#A X014 (ip), vehicle: methylcellulose (MC))?
A: 57 % of control and 65 % of control

Q: What about the T/C (dose: 33.5 mg/kg/injection, schedule: Q#A X014 (ip), vehicle: methylcellulose (MC)) of the same molecule?
A: 51 % of control

Q: And the T/C (dose: 50.0 mg/kg/injection, schedule: Q#A X014 (ip), vehicle: methylcellulose (MC))?
A: 42 % of control and 48 % of control and 64 % of control

Q: What about the T/C (dose: 75.0 mg/kg/injection, schedule: Q#A X014 (ip), vehicle: methylcellulose (MC)) of the same molecule?
A: 21 % of control
